For one compound, EC50 results are on record in publication PMC4820820, “CETSA screening identifies known and novel thymidylate synthase inhibitors and slow intracellular activation of 5-fluorouracil” (Nature Communications, 2016).

Molecules are shown by their SMILES.

The target in this assay is T1, human thymidylate synthase (TS) (Homo sapiens, UniProt P04818).
T1 construct: screening in live, non-engineered cells expressing thymidylate synthase; endogenous in cells; host or cells: K562 (human myelogenous leukemia) cells
The assay is described as follows: ITDRF CETSA at 50 °C, AlphaScreen detection, live K562 cells. In kind it is cell-based. The note with it: 2 h preincubation, 50 °C, unit taken from curve axis log [cmp] (M), read-out: ITDRF CETSA (hit confirmation). The method, then: For the […] experiments 11-point dose-response curves with three-fold difference in concentration between wells were generated using the Bravo liquid handling system (all serial dilutions were done in 100% DMSO). […] The concentration of DMSO was 0.5% in all samples. […] The assay ready plates were prepared as outlined above for the screen.
The screen procedure started with the addition of 5 μl of a suspension of K562 cells at a density of 10 million cells per ml to all wells of a 384 well hardshell PCR plate (HSR480, BIORAD) using an electronic multichannel pipette (Biohit). […] For the time-course experiments the incubation times were altered to include also 10 min, 30 min and 6 h. […] After the incubation step the plates were transiently heated at 50 °C for 3 min followed by a controlled cooling to 20 °C for 1 min using a real-time PCR machine (LightCycler480 system, Roche). Plate handling was then as described above for the thermal aggregation experiments. The data were analyzed using microsoft excel and GraphPad Prism 6.
A calculation of the average and standard error of means for each set of controls also allowed an illustration of how these responses varied over the 32 screening plates. The Z′ factor[38] is commonly used as a measure of how well the assay separates between the controls and this was calculated as described based on the calculated averages and standard deviations of the controls on a per plate basis. For the Tagg shift and the […] experiments the data were analyzed in GraphPad Prism using the Boltzmann sigmoid equation and the saturation binding curve (rectangular hyperbola; binding isotherm) function, respectively. As already discussed[14] these methods make use of equilibrium models for data analysis although the methodology depends on the irreversible aggregation of denatured material. For this reason we refer to the observed responses as apparent and isothermal dose-response fingerprints and are careful with any quantitative interpretations, being well aware of their dependency on experimental conditions. Experiments are on-going to address the quantitative interpretation of CETSA data.
In general terms: In Alpha technology, singlet oxygen from a donor bead excites a nearby acceptor bead.

T1 sequence (P04818 2-313 limits assumed): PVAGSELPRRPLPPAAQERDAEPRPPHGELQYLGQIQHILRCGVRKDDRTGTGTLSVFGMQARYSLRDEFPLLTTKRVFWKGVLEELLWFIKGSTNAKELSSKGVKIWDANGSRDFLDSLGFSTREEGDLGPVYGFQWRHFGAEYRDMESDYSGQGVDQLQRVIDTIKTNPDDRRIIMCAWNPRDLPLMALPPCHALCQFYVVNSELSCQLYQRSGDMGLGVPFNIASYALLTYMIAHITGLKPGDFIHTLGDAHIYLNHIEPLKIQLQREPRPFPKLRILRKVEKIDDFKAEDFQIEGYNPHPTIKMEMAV

For `Nc1ncn([C@H]2C[C@H](O)[C@@H](CO)O2)c(=O)n1` [decitabine, 5-Aza-deoxycytidine], the EC50 was 6.87e-08 M.
